Source: patent US7105553B2, “Thiazolyl amide derivatives” (Bayer Aktiengesellschaft, priority 1999, dated 2006)

Compound | melting point [°C]
Cc1nc(N(Cc2cccnc2)C(=O)Cc2ccc(-c3ccccc3)cc2)sc1S(N)(=O)=O | 189
Cc1nc(N(Cc2ccccn2)C(=O)Cc2ccc(-c3ccccc3)cc2)sc1S(N)(=O)=O | 205
CCOc1ccc(CC(=O)N(C)c2nc(C)c(S(N)(=O)=O)s2)cc1 | 168
Cc1nc(N(C)C(=O)Cc2ccc(-c3ccccc3C(F)(F)F)cc2)sc1S(=O)(=O)NCCNC(=O)OC(C)(C)C | 156
Cc1nc(N(C)C(=O)Cc2ccc(-c3ccccc3)cc2)sc1S(=O)(=O)N(C)C | 184
COc1ccc(F)cc1-c1ccc(CC(=O)N(CC2CCCO2)c2nc(C)c(S(N)(=O)=O)s2)cc1 (stereo not shown) | 79
CONS(=O)(=O)c1sc(N(C)C(=O)Cc2ccc(-c3ccccc3)cc2)nc1C | 129
CCOCCCNS(=O)(=O)c1sc(N(CCCOCC)C(=O)Cc2ccc(-c3cccc(OC)c3)cc2)nc1C | 74 to 75
CNS(=O)(=O)c1sc(N(C)C(=O)C(C)c2ccc(-c3ccccc3)cc2)nc1C (stereo not shown) | 170 to 172
Cc1nc(N(CC2CC2)C(=O)Cc2ccc(-c3ccccc3)cc2)sc1S(N)(=O)=O | 161
CNS(=O)(=O)c1sc(N(C)C(=O)Cc2ccc(-c3cccc4c3oc3ccccc34)cc2)nc1C | 109
CCOc1ccc(CC(=O)N(CCN(C)C)c2nc(C)c(S(=O)(=O)NC)s2)cc1 | 153
CCOc1ccc(CC(=O)N(Cc2ccncc2)c2nc(C)c(S(N)(=O)=O)s2)cc1 | 122
CNS(=O)(=O)c1sc(N(C)C(=O)Cc2ccc(-c3cccc(OC(F)(F)F)c3)cc2)nc1C | 156
COc1ccc(F)cc1-c1ccc(CC(=O)N(C)c2nc(C)c(S(N)(=O)=O)s2)cc1 | 219
Cc1cnc(N)c(-c2ccc(CC(=O)N(C)c3nc(C)c(S(N)(=O)=O)s3)cc2)c1 | 183
CCOCCNS(=O)(=O)c1sc(N(C)C(=O)Cc2ccc(OCC)cc2)nc1C | 125 to 127
CNS(=O)(=O)c1sc(N(C)C(=O)Cc2ccc(-c3ccccc3OC)cc2)nc1C | 192
CNS(=O)(=O)c1sc(N(C)C(=O)Cc2ccc(Br)cc2)nc1C | 168
Cc1nc(N(Cc2ccncc2)C(=O)Cc2ccc(-c3ccccc3)cc2)sc1S(N)(=O)=O | 130
CNS(=O)(=O)c1sc(N(C)C(=O)Cc2ccc(-c3ncccc3O)cc2)nc1C | 225
Cc1nc(N(C)C(=O)Cc2ccc(-c3ccccc3)cc2)sc1S(=O)(=O)NCCOC(=O)CNC(=O)OC(C)(C)C | 159

Compound | melting point [°C]
CCCCOc1ccc(CC(=O)N(C)c2nc(C)c(S(=O)(=O)NCCOCC)s2)cc1 | 68 to 70
CNS(=O)(=O)c1sc(N(C)C(=O)Cc2ccc(-c3ncccc3N)cc2)nc1C.Cl | 160
CCOCCCNS(=O)(=O)c1sc(N(C)C(=O)Cc2ccc(-c3ccccc3)cc2)nc1C | 139 to 140
CCCN(C(=O)Cc1ccc(-c2ccccc2)cc1)c1nc(C)c(S(N)(=O)=O)s1 | 154
CNS(=O)(=O)c1sc(N(C)C(=O)Cc2ccc(-c3ccc(OC(F)(F)F)cc3)cc2)nc1C | 109
CNS(=O)(=O)c1sc(N(C)C(=O)Cc2ccc(-c3ccccc3C(F)(F)F)cc2)nc1C | 202
Cc1nc(N(CC2CCCO2)C(=O)Cc2ccc(-c3ccccc3)cc2)sc1S(N)(=O)=O (stereo not shown) | 159
Cc1nc(N(CCCN2CCCC2=O)C(=O)Cc2ccc(-c3ccccc3)cc2)sc1S(N)(=O)=O | 203
Cc1ccncc1-c1ccc(CC(=O)N(C)c2nc(C)c(S(N)(=O)=O)s2)cc1 | 204
CC(=O)Nc1cccc(-c2ccc(CC(=O)N(C)c3nc(C)c(S(N)(=O)=O)s3)cc2)c1 | 234
Cc1nc(N(C)C(=O)Cc2ccc(-c3ccccc3)cc2)sc1S(=O)(=O)NCCO | 167
CCOc1ccc(CC(=O)N(CCOC)c2nc(C)c(S(N)(=O)=O)s2)cc1 | 165
Cc1nc(N(C)C(=O)Cc2ccc(-c3cccc(O[Si](C)(C)C(C)(C)C)c3)cc2)sc1S(N)(=O)=O | 161
Cc1nc(N(C)C(=O)Cc2ccc(-c3cncc(C#N)c3)cc2)sc1S(N)(=O)=O | 231
CNS(=O)(=O)c1sc(N(C)C(=O)Cc2ccc(-c3cccc(N)c3)cc2)nc1C | 193
CNS(=O)(=O)c1sc(N(C)C(=O)Cc2ccc(-c3ncccc3C(F)(F)F)cc2)nc1C | 180
COCCCN(C(=O)Cc1ccc(-c2ccccc2)cc1)c1nc(C)c(S(N)(=O)=O)s1 | 148
Cc1nc(N(CCN2CCCC2=O)C(=O)Cc2ccc(-c3ccccc3)cc2)sc1S(N)(=O)=O | 202
Cc1nc(N(CCc2ccncc2)C(=O)Cc2ccc(-c3ccccc3)cc2)sc1S(N)(=O)=O | 204
Cc1nc(N(C)C(=O)Cc2ccc(-c3ccncc3F)cc2)sc1S(N)(=O)=O | 223
Cc1nc(N(CCc2ccccn2)C(=O)Cc2ccc(-c3ccccc3)cc2)sc1S(N)(=O)=O | 136
CCOCCNS(=O)(=O)c1sc(N(C)C(=O)Cc2ccc(-c3ccccc3)cc2)nc1C | 105 to 106

Compound | melting point [°C]
Cc1nc(N(C)C(=O)Cc2ccc(-c3ccccc3)cc2)sc1S(=O)(=O)NCCN(C)C(=O)OC(C)(C)C | 175
CNS(=O)(=O)c1sc(N(C)C(=O)Cc2ccc(-c3cnccn3)cc2)nc1C | 187
Cc1nc(N(C)C(=O)Cc2ccc(-c3c(F)cccc3F)cc2)sc1S(N)(=O)=O | 215
COCCN(C(=O)Cc1ccc(-c2ccccc2)cc1)c1nc(C)c(S(N)(=O)=O)s1 | 163
Cc1nc(N(C)C(=O)Cc2ccc(-c3cccc([N+](=O)[O-])c3)cc2)sc1S(=O)(=O)N(C)C | 81
CNS(=O)(=O)c1sc(N(C(=O)Cc2ccc(-c3ccccc3)cc2)C2CC2)nc1C | 202
CNS(=O)(=O)c1sc(NC(=O)Cc2ccc(-c3ccccc3)cc2)nc1C | 133
Cc1nc(N(C)C(=O)Cc2ccc(-c3ccccc3)cc2)sc1S(=O)(=O)NCCO[Si](C)(C)C(C)(C)C | 128
CCOCCOCCOCCN(C(=O)Cc1ccc(-c2ccccc2)cc1)c1nc(C)c(S(N)(=O)=O)s1 | 94
Cc1nc(N(C)C(=O)Cc2ccc(-c3ccccc3)cc2F)sc1S(N)(=O)=O | 130
Cc1nc(N(Cc2ccccc2)C(=O)Cc2ccc(-c3ccccc3)cc2)sc1S(N)(=O)=O | 154
Cc1nc(N(C)C(=O)Cc2ccc(-c3ccccn3)cc2)sc1S(=O)(=O)NCCO | 175
CNS(=O)(=O)c1sc(N(C)C(=O)Cc2ccc(-c3cccc(Cl)c3)cc2)nc1C | 187
CNS(=O)(=O)c1sc(N(C)C(=O)Cc2ccc(-c3cccc(OC)c3)cc2)nc1C | 154
Cc1nc(N(C(=O)Cc2ccc(-c3ccccc3)cc2)C2CC2)sc1S(N)(=O)=O | 179
CNS(=O)(=O)c1sc(N(C)C(=O)Cc2ccc(-c3cccc(F)c3)cc2)nc1C | 190
Cc1nc(N(C)C(=O)Cc2ccc(-c3ncccc3F)cc2)sc1S(N)(=O)=O | 218
Cc1nc(N(C)C(=O)Cc2ccc(-c3ccccc3)cc2)sc1S(=O)(=O)NCCNC(=O)OC(C)(C)C | 150
CNS(=O)(=O)c1sc(N(C)C(=O)Cc2ccc(-c3ncccc3N)cc2)nc1C | 80
CNS(=O)(=O)c1sc(N(C)C(=O)Cc2ccc(-c3cccc([N+](=O)[O-])c3)cc2)nc1C | 201
CNS(=O)(=O)c1sc(N(C)C(=O)Cc2ccc(-c3cncnc3)cc2)nc1C | 193
Cc1nc(N(C)C(=O)Cc2ccc(-c3ncccc3C(F)(F)F)cc2)sc1S(N)(=O)=O | 221

Compound | melting point [°C]
CNS(=O)(=O)c1sc(N(C)C(=O)Cc2ccc(-c3cccnc3)cc2)nc1C.Cl | 270
CNS(=O)(=O)c1sc(N(C)C(=O)Cc2ccc(-c3ccccc3OC(F)(F)F)cc2)nc1C | 190
Cc1nc(N(C)C(=O)Cc2ccc(-c3cccnc3)cc2)sc1S(N)(=O)=O.Cl | 177
CNS(=O)(=O)c1sc(N(CCNC(=O)OC(C)(C)C)C(=O)Cc2ccc(-c3ccccc3)cc2)nc1C | 188
CCOCCCNS(=O)(=O)c1sc(N(C)C(=O)Cc2ccc(-c3cccc(OC)c3)cc2)nc1C | 125 to 127
CNS(=O)(=O)c1sc(N(C)C(=O)Cc2ccc(-c3ccc(Cl)cc3)cc2)nc1C | 186
CNS(=O)(=O)c1sc(N(C)C(=O)Cc2ccc(-c3cnccc3C)cc2)nc1C | 113
Cc1nc(N(C)C(=O)Cc2ccc(-c3ncccc3C(F)(F)F)cc2)sc1S(N)(=O)=O.Cl | 225
Cc1nc(N(CCc2ccccc2)C(=O)Cc2ccc(-c3ccccc3)cc2)sc1S(N)(=O)=O | 174
Cc1nc(N(C)C(=O)Cc2ccc(-c3ncccc3F)cc2)sc1S(N)(=O)=O.Cl | 206
Cc1nc(N(C)C(=O)Cc2ccc(-c3cccc(N4CCCC4)c3)cc2)sc1S(N)(=O)=O | 152
CNS(=O)(=O)c1sc(N(C)C(=O)Cc2ccc(-c3ccccc3)cc2)nc1C | 180
CNS(=O)(=O)c1sc(N(C)C(=O)Cc2ccc(-c3cccc(C=O)c3)cc2)nc1C | 192
CNS(=O)(=O)c1sc(N(C)C(=O)Cc2ccc(-c3ccccc3Cl)cc2)nc1C | 128
Cc1nc(N(C)C(=O)Cc2ccc(-c3cccc([N+](=O)[O-])c3)cc2)sc1S(N)(=O)=O | 202
Cc1nc(N(C)C(=O)Cc2ccc(-c3cncnc3)cc2)sc1S(N)(=O)=O | 234
CNS(=O)(=O)c1sc(N(C)C(=O)Cc2ccc(-c3cccnc3)cc2)nc1C | 200
CNS(=O)(=O)c1sc(N(C)C(=O)Cc2ccc(-c3ccccc3C)cc2)nc1C | 167
Cc1nc(N(C)C(=O)Cc2ccc(-c3ccccc3)cc2)sc1S(=O)(=O)NCCN | 138
COCCN(C(=O)Cc1ccc(-c2cc(F)ccc2OC)cc1)c1nc(C)c(S(N)(=O)=O)s1 | 199
Cc1nc(N(C)C(=O)Cc2ccc(-c3cccc(N)c3)cc2)sc1S(N)(=O)=O | 209
CNS(=O)(=O)c1sc(N(C)C(=O)Cc2ccc(-c3cc(C)cc(C)c3)cc2)nc1C | 170
